Experimental data: the NIST ThermoML archive (doi:10.1021/je200595b)
Numbers after ± are expanded uncertainties.

Test: excess molar enthalpy (molar enthalpy of mixing); xn = mol fraction of the nth substance listed
Conditions: 298.15 K, 100 kPa, Liquid, Flow calorimetry

CC(=O)OC(C)=O [ethanoic anhydride] + CC(=O)O
Conditions	excess molar enthalpy [kcal/mol]
x1 = 0.05	0.0108 ± 0.000717
x1 = 0.1	0.0213 ± 0.0012
x1 = 0.15	0.032 ± 0.00167
x1 = 0.2	0.0423 ± 0.00215
x1 = 0.25	0.0519 ± 0.00263
x1 = 0.3	0.0607 ± 0.00311
x1 = 0.35	0.0688 ± 0.00359
x1 = 0.4	0.0758 ± 0.00382
x1 = 0.45	0.0813 ± 0.00406
x1 = 0.5	0.0851 ± 0.0043
x1 = 0.55	0.0875 ± 0.00454
x1 = 0.6	0.088 ± 0.00454
x1 = 0.65	0.0863 ± 0.0043
x1 = 0.7	0.0822 ± 0.00406
x1 = 0.75	0.0758 ± 0.00382
x1 = 0.8	0.0669 ± 0.00335
x1 = 0.85	0.055 ± 0.00287
x1 = 0.9	0.0402 ± 0.00215
x1 = 0.95	0.022 ± 0.0012

CC(=O)OC(C)=O [ethanoic anhydride] + CCO
Conditions	excess molar enthalpy [kcal/mol]
x2 = 0.05	0.0822 ± 0.00406
x2 = 0.1	0.154 ± 0.00789
x2 = 0.15	0.214 ± 0.0108
x2 = 0.2	0.266 ± 0.0134
x2 = 0.25	0.306 ± 0.0155
x2 = 0.3	0.339 ± 0.0172
x2 = 0.35	0.364 ± 0.0184
x2 = 0.4	0.382 ± 0.0194
x2 = 0.45	0.396 ± 0.0201
x2 = 0.5	0.405 ± 0.0206
x2 = 0.6	0.383 ± 0.0194
x2 = 0.65	0.363 ± 0.0184
x2 = 0.7	0.337 ± 0.017
x2 = 0.75	0.306 ± 0.0155
x2 = 0.8	0.268 ± 0.0136
x2 = 0.85	0.221 ± 0.0112
x2 = 0.9	0.164 ± 0.00837
x2 = 0.95	0.0939 ± 0.00478

CCOC(C)=O [ethyl acetate] + CCO
Conditions	excess molar enthalpy [kcal/mol]
x2 = 0.05	0.0712 ± 0.00359
x2 = 0.1	0.135 ± 0.00693
x2 = 0.15	0.185 ± 0.00932
x2 = 0.2	0.222 ± 0.0112
x2 = 0.25	0.25 ± 0.0127
x2 = 0.3	0.27 ± 0.0136
x2 = 0.35	0.283 ± 0.0143
x2 = 0.4	0.291 ± 0.0148
x2 = 0.45	0.293 ± 0.0148
x2 = 0.5	0.289 ± 0.0146
x2 = 0.55	0.284 ± 0.0143
x2 = 0.6	0.276 ± 0.0139
x2 = 0.65	0.262 ± 0.0131
x2 = 0.7	0.234 ± 0.0117
x2 = 0.75	0.205 ± 0.0103
x2 = 0.8	0.174 ± 0.00884
x2 = 0.85	0.138 ± 0.00693
x2 = 0.9	0.1 ± 0.00502
x2 = 0.95	0.0554 ± 0.00287
